Results on nine compounds are retold here after patent US12421209B2, “Compounds” (Hoffmann-La Roche Inc., priority 2021, dated 2025).

The structures appear in SMILES notation. pIC50: −log10 of the molar value.

Usually pIC50 stands for the negative decadic logarithm of the IC50, by convention in mol/L.

Sequence of NLRP3 (Q96P20 whole entry): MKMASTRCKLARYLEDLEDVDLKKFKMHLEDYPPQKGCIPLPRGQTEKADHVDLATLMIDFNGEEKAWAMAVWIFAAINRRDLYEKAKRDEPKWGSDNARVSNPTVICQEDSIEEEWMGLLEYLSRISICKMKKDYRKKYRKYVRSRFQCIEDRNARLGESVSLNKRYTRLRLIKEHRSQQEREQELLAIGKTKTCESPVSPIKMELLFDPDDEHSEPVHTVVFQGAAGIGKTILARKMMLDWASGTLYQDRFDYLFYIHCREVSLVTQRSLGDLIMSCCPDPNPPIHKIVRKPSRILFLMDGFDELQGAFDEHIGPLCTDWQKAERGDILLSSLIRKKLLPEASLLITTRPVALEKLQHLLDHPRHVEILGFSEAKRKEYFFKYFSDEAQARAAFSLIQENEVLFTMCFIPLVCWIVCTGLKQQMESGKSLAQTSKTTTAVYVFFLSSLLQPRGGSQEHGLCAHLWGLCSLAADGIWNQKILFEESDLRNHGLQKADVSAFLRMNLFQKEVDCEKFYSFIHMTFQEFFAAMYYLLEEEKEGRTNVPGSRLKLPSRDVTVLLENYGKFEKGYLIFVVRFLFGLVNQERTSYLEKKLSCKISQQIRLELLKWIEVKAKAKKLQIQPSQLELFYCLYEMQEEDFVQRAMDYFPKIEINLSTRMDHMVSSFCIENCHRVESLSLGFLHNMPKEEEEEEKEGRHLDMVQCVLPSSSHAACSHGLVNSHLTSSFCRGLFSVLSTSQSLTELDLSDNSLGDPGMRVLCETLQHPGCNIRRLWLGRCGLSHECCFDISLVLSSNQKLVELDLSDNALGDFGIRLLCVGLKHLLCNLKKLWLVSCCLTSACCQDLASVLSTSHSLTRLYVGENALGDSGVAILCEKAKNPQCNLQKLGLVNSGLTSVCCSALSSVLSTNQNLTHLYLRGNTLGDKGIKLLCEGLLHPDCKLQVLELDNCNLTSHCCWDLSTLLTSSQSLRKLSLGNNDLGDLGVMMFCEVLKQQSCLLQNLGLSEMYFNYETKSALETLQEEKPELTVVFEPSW

This assay concerns the target NLRP3 (Homo sapiens, UniProt Q96P20). In words: THP-1 cells pyroptosis assay (LPS priming, nigericin, resazurin read-out). In kind it is cell-based. Set-up: Seed THP-1 cells (25,000 cells/well) containing 1.0 μg/ml LPS; host or cells: THP-1 cells. As to conditions: 1.0 μg/ml LPS, 5 μM nigericin. As to the method:
THP-1 cells (ATCC #TIB-202) were grown in RPMI containing L-glutamine (Gibco #11835) supplemented with 1 mM sodium pyruvate (Sigma #S8636) and penicillin (100 units/ml)/streptomycin (0.1 mg/ml) (Sigma #P4333) in 10% Fetal Bovine Serum (FBS) (Sigma #F0804). The cells were routinely passaged and grown to confluency (˜10^6 cells/ml). On the day of the experiment, THP-1 cells were harvested and resuspended into RPMI medium (without FBS). The cells were then counted and viability (>90%) checked by Trypan blue (Sigma #T8154). Appropriate dilutions were made to give a concentration of 625,000 cells/ml. To this diluted cell solution was added LPS (Sigma #L4524) to give a lug/ml Final Assay Concentration (FAC). 40 μl of the final preparation was aliquoted into each well of a 96-well plate. The plate thus prepared was used for compound screening.
The following method step-by-step assay was followed for compound screening. • 1. Seed THP-1 cells (25,000 cells/well) containing 1.0 μg/ml LPS in 40 μl of RPMI medium (without FBS) in 96-well, black walled, clear bottom cell culture plates coated with poly-D-lysine (VWR #734-0317) • 2. Add 5 μl compound (8 points half-log dilution, with 10 μM top dose) or vehicle (DMSO 0.1% FAC) to the appropriate wells • 3. Incubate for 3 hours at 37° C., 5% CO2 • 4. Add 5 μl nigericin (Sigma #N7143) (FAC 5 μM) to all wells • 5. Incubate for 1 hr at 37° C., 5% CO2 • 6. At the end of the incubation period, spin plates at 300×g for 3 mins and remove supernatant • 7. Then add 50 μl of resazurin (Sigma #R7017) (FAC 100 μM resazurin in RPMI medium without FBS) and incubate plates for a further 1-2 hours at 37° C. and 5% CO2 • 8. Plates were read in an Envision reader at Ex 560 nm and Em 590 nm • 9. IC50 data is fitted to a non-linear regression equation (log inhibitor vs response-variable slope 4-parameters)
For orientation: Resazurin is reduced to fluorescent resorufin, in cell work by metabolically active cells.
With `Cc1nc(N[C@H]2CCCN3CCC[C@H]23)nnc1-c1ccc(C(F)(F)F)cc1O` (racemic) [Example 26, 2-[5-Methyl-3-[[rac-(8S,8aR)-1,2,3,5,6,7,8,8a-octahydroindolizin-8-yl]amino]-1,2,4-triazin-6-yl]-5-(trifluoromethyl) phenol], the negative logarithm of the IC50 (pIC50) was 8.29. Regarding `Cc1nc(N[C@H]2CCCN3CCC[C@@H]23)nnc1-c1ccc(C(F)(F)F)cc1O` (racemic) [Example 27, 2-[5-Methyl-3-[[rac-(8S,8aS)-1,2,3,5,6,7,8,8a-octahydroindolizin-8-yl]amino]-1,2,4-triazin-6-yl]-5-(trifluoromethyl) phenol], the negative-log IC50 (pIC50) was 7.68. For `Cc1nc(N[C@@H]2CCCN(C(C)(C)C)C2)nnc1-c1ccc(C(F)(F)F)cc1O` (single isomer, unassigned) [Example 10, 2-[3-[[(3R or 3S)-1-tert-Butyl-3-piperidyl]amino]-5-methyl-1,2,4-triazin-6-yl]-5-(trifluoromethyl) phenol], the negative-log IC50 (pIC50) was 6.36. In the case of `Cc1nc(NC2CCCN3CCCC23)nnc1-c1ccc(C(F)(F)F)cc1O` (single isomer, unassigned) [Example 29] it was 6.79; in that of `Cc1nc(NC2CCC3CCCN3C2)nnc1-c1ccc(C(F)(F)F)cc1O` (single isomer, unassigned) [Example 31, 2-[3-[[(6S or 6R,8aS or 8aR)-1,2,3,5,6,7,8,8a-octahydroindolizin-6-yl]amino]-5-methyl-1,2,4-triazin-6-yl]-5-(trifluoromethyl) phenol], below 6.00; in that of `Cc1nc(NC2CCC3CCCN3C2)nnc1-c1ccc(C(F)(F)F)cc1O` (single isomer, unassigned) [Example 34, 2-[3-[[(6R or 6S, 8aR or 8aS)-1,2,3,5,6,7,8,8a-octahydroindolizin-6-yl]amino]-5-methyl-1,2,4-triazin-6-yl]-5-(trifluoromethyl) phenol], 6.68. In the case of `Cc1nc(N[C@@H]2C[C@H](F)CN(C)C2)nnc1-c1ccc(C(F)(F)F)cc1O` [Example 13, 2-[3-[[(3R,5S)-5-Fluoro-1-methyl-3-piperidyl]amino]-5-methyl-1,2,4-triazin-6-yl]-5-(trifluoromethyl) phenol] it was 7.11; in that of `Cc1nc(NC2CCCn3ccnc32)nnc1-c1ccc(C(F)(F)F)cc1O` (stereo not drawn) [Example 14, 2-[5-Methyl-3-(5,6,7,8-tetrahydroimidazo[1,2-a]pyridin-8-ylamino)-1,2,4-triazin-6-yl]-5-(trifluoromethyl) phenol], 6.46. Take `CCN1CCC[C@@H](Nc2nnc(-c3ccc(C(F)(F)F)cc3O)c(C(F)(F)F)n2)C1` [Example 30, 2-[3-[[(3R)-1-Ethyl-3-piperidyl]amino]-5-(trifluoromethyl)-1,2,4-triazin-6-yl]-5-(trifluoromethyl) phenol; 2,2,2-trifluoroacetic acid]: the pIC50 was 6.95.
